Where two headings read alike, the source gives them in different places.
Tests used:
[1] = target: T1, human 5-HT1A-serotonergic receptor (Homo sapiens, UniProt P08908); test: Radioligand binding to recombinant 5-HT1A receptors ([3H]8-OH-DPAT, HeLa cell membranes); conditions: 1 nM [3H]8-OH-DPAT; Ki from IC50 by Cheng & Prusoff; read-out: Ki, binding affinity for 5-HT1A receptors
T1 construct: expressed in transfected cells; host or cells: HeLa (human), stably transfected; membrane preparation
T1 sequence (P08908 1-422): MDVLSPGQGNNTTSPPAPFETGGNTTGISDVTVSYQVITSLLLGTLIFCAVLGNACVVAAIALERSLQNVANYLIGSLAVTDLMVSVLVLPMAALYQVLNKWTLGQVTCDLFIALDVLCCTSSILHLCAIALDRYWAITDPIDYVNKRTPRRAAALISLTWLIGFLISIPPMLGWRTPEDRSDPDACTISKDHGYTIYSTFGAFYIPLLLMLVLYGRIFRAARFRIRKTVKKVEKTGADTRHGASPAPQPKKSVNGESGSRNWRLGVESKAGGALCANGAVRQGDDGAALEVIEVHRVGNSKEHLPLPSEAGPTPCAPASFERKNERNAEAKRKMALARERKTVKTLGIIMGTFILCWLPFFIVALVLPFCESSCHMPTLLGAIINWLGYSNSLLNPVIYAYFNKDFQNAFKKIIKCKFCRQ
Method: Genomic clone coding for the human 5-HT1A-serotonergic receptor was stably transfected in a human cell line (HeLa). HeLa cells were grown as monolayers in Dulbecco's modified Eagle medium (DMEM), containing 10% foetal bovine serum, gentamycin (0.1 mg/ml) and 5% carbon dioxide, at 37° C. The cells were detached from the growth flask at 95% confluence by a cell scraper and were lysed in cold 5 mM Tris and 5 mM EDTA buffer (pH 7.4). The homogenates were centrifuged at 40000×g×20 minutes and the pellets were resuspended in a small volume of cold 5 mM Tris and 5 mM EDTA buffer (pH 7.4) and immediately frozen and stored at −70° C. until use. On the day of experiment, the cell membranes were resuspended in incubation buffer: 50 mM Tris HCl (pH 7.4), 2.5 mM MgCl2, […] (Fargin et al., Nature 335, 358-360, 1988). The membranes were incubated in a final volume of 1 ml for 30 minutes at 30° C. with 1 nM [^3H]8-OH-DPAT, in the absence or presence of the test compounds. Non-specific binding was determined in the presence of 10 μM 5-HT. Incubation was stopped by addition of cold Tris-HC1 buffer and rapid filtration through a 0.2%-polyethyleneimine-pretreated Whatman-GF/B or Schleicher-&-Schuell-GF52 filter.
The affinities of the tested compounds were evaluated as inhibition of specific binding of the radioligand to 5-HT1A receptors (IC50) by using the non-linear curve-fitting program Allfit (De Lean et al., Am. J. Physiol. 235, E97-E102 (1978). The IC50 value was converted to an affinity constant (Ki) by the equation of Cheng & Prusoff (Cheng Y. C., Prusoff W. H., Biochem. Pharmacol. 22, 3099-3108 (1973)).

[2] = tested on: rhythmic bladder-voiding contractions in anaesthetised rats; test: Rhythmic bladder-voiding contractions induced by bladder filling in anaesthetised rats; format: in vivo, rat; conditions: intravenous administration; for ED50: Rattus norvegicus
Method: Female Sprague-Dawley rats weighing 225-275 g (Crl: CD® (SD) IGS BR, Charles River Italia) were used. The animals were housed with free access to food and water and maintained on a forced 12-hour alternating light-dark cycle at 22-24° C. for at least one week, except during the experiment. The activity on rhythmic bladder voiding contractions was evaluated according to the method of Dray (Dray J., Pharmacol. Methods, 13:157, 1985), with some modifications as in Guarneri (Guarneri, Pharmacol. Res. 27:173, 1993). Briefly, rats were anaesthetised by subcutaneous injection of 1.25 g/kg (5 ml/kg) urethane, after which the urinary bladder was catheterised via the urethra using PE 50 polyethylene tubing filled with physiological saline. The catheter was tied in place with a ligature around the external urethral orifice and was connected to conventional pressure transducers (Statham P23 ID/P23 XL). […] The bladder was then filled via the recording catheter by incremental volumes of warm (37° C.) saline until reflex bladder-voiding contractions occurred (usually 0.8-1.5 ml). For intravenous injection of bioactive compounds, PE 50 polyethylene tubing filled with physiological saline was inserted into the jugular vein.
From the cystometrogram, the number of contractions recorded 15 minutes before (basal values) and after treatment, as well as the mean amplitude of these contractions (mean height of the peaks in mmHg), was evaluated.
Since most compounds produced an effect that was relatively rapid in onset and lead to a complete cessation of bladder contractions, bioactivity was conveniently estimated by measuring the duration of bladder quiescence (i.e., the length of the time during which no contractions occured). The number of tested animals showing a reduction in the number of contractions higher than 30% of that observed in the basal period was also recorded.
To compare the potency of the tested compounds for inhibiting the bladder voiding contractions, equieffective doses that result in the disappearance of contractions for a time of 10 minutes (ED10min) were computed by means of linear regression using the least square method. The extrapolated doses which induces a reduction in the number of contractions greater than 30% in 50% of the treated rats (ED50) was evaluated by the method of Bliss (Bliss C. I., Quart J. Pharm. Pharmacol. 11, 192-216, 1938).
Data represent the ED10min values (the extrapolated dose inducing 10 minutes of disappearance of the contractions), the ED50 (frequency) values (the extrapolated doses inducing a reduction of the number of contractions >30% in 50% of treated rats), and the ED50 (amplitude) values (the extrapolated doses inducing a 30% reduction of amplitude of the contractions in 50% of treated rats).

5-HT1A receptors = target: T2, 5-HT1A receptors (Rattus norvegicus, UniProt P19327); test: Inhibition of stereotypy (rhythmic forepaw treading) induced by 8-OH-DPAT in rats (post-synaptic antagonism); format: in vivo; conditions: for % Inhibition of forepaw treading, 1 h / % Inhibition of forepaw treading, 4 h: 10 mg/kg p.o.; for % Inhibition of forepaw treading, 1 h: given 1 h before 8-OH-DPAT (1 mg/kg s.c.); for % Inhibition of forepaw treading, 4 h: given 4 h before 8-OH-DPAT (1 mg/kg s.c.)
T2 construct: stereotyped forepaw treading induced in rats by subcutaneous injection of 8-OH-DPAT; from tissue; host or cells: whole animal (male Sprague-Dawley rats), endogenous post-synaptic receptors
T2 sequence (P19327 1-422): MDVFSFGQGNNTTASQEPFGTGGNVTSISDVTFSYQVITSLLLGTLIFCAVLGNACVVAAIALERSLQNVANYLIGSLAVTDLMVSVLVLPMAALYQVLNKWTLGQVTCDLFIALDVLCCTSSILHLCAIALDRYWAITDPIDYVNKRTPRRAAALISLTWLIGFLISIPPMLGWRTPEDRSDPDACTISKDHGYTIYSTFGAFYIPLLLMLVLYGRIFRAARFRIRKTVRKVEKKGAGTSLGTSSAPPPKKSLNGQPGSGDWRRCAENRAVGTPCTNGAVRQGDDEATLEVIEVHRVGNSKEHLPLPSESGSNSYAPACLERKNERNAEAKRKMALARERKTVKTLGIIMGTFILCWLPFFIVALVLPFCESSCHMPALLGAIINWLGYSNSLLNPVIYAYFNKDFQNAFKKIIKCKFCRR
Method: The inhibitory effect of 5-HT1A-receptor antagonists on stereotyped forepaw treading induced in rats by subcutaneous injection of 8-OH-DPAT was evaluated by the method of Tricklebank (Tricklebank et al., Eur. J. Pharmacol., 117: 15, 1985) with minor modifications as described below.
Male Sprague-Dawley rats[Crl: CD® (SD) IGS BR] weighing 150-175 g from Charles River Italia were used. The animals were housed with free access to food and water and maintained on a forced 12-hour-light/12-hour-dark cycle at 22-24° C. of temperature. On the day of the experiment, the rats were placed singly in clear plastic containers, 10-15 minutes before administration of the vehicle or compounds to be tested. For evaluation of antagonistic activity after oral administration, the compounds were administered 1 and 4 hours before induction of stereotypy by 8-OH-DPAT (1 mg/kg subcutaneously). Observation sessions last 30 seconds and were begun 3 minutes after 8-OH-DPAT treatment and repeated every 3 minutes over a period of 15 minutes.
The appearance of the symptom induced by postsynaptic stimulation of 5-HT1A receptors was noted, and the intensity was scored using an intensity scale in which: 0=absent, 1=equivocal, 2=present and 3=intense. Behavioural scores for treated rats were accumulated throughout the observation time (5 observation periods) and expressed as mean values of 4 rats/dose. Change in mean values of treated animals in comparison with control (vehicle) group, expressed as per-cent inhibition, were used to quantify the antagonistic activity.

[3] = urethane-anaesthetised female rats, read-out: ED50 (frequency) (extrapolated dose inducing a reduction of the number of contractions >30% in 50% of treated rats)
[4] = urethane-anaesthetised female rats

Structure (SMILES)	Ki [1] [nM]	ED50 [2, 3] [mg/kg]	ED10 min (extrapolated dose inducing 10 minutes of disappearance of the contractions) [2, 4] [mg/kg]	% Inhibition of forepaw treading, 1 h (5-HT1A receptors) [%]	% Inhibition of forepaw treading, 4 h (5-HT1A receptors) [%]	inhibition of stereotypy induced by 8-OH-DPAT (in words) (5-HT1A receptors; oral administration)	ED50 ([2]; n.a. = not active, no significant reduction of the height of the peaks, read-out: ED50 (amplitude) (extrapolated dose inducing a 30% reduction of amplitude of the contractions in 50% of treated rats)) [mg/kg]
COc1ccccc1N1CCN(CC[C@H](c2ccccc2F)[C@@H](OC(C)=O)C2CCCCC2)CC1 (racemic) [Example 45, (RS,SR) 1-[4-Acetoxy-4-cyclohexyl-3-(2-fluorophenyl)butyl]-4-(2-methoxyphenyl)piperazine]	0.54	0.127	0.584	100	81	potent and long-lasting inhibition	
COc1ccccc1N1CCN(CC[C@H](c2ccccc2F)[C@@H](OC(N)=O)C2CCCCC2)CC1 (racemic) [Example 48, (RS,SR) 1-[4-Aminocarbonyloxy-4-cyclohexyl-3-(2-fluorophenyl)butyl]-4-(2-methoxyphenyl)piperazine]	0.36			90	74		
COc1cc(F)ccc1N1CCN(CCC(c2ccccc2C#N)C(O)C2CCCCC2)CC1 (centres unmarked) [Example 16, 1-[3-(2-Cyanophenyl)-4-cyclohexyl-4-hydroxybutyl]-4-(4-fluoro-2-methoxyphenyl)piperazine]	0.9			40	17		
CC#CC(O)C(CCN1CCN(c2cccc3c2OCCO3)CC1)c1ccccc1 (centres unmarked) [Example 31, 1-[5-(2,3-Dihydro-1,4-benzodioxinyl)]-4-(4-hydroxy-3-phenylhept-5-ynyl)piperazine]	2.71			60	18		
CN1CC[C@]23c4c5ccc(O)c4O[C@H]2[C@@H](O)C=C[C@H]3[C@H]1C5 [Morphine]		0.03	0.05				
CCN(CC)CC#CCOC(=O)C(O)(c1ccccc1)C1CCCCC1 (centres unmarked) [Oxybutynin]		> 10	7.77				0.24

Reference: patent US20040072839A1, “1-Phenylalkylpiperazines” (priority 2002, published 2004)
